Experimental data taken from patent publication US9925192B2, “Method for treating cancer” (Merck Sharp & Dohme Corp., priority 2014, dated 2018).

Columns and labels:
H82 SCLC cells = experiment: In vitro cell viability (Cell Titer Glo), 8 hours of compound treatment; type: cell-based; conditions: Homo sapiens, read-out: % Viability Remaining (8 hr), mean
Protocol: (§1) All cell lines were grown in exponential growth phase.

H146 SCLC cells = experiment: as above; type: cell-based; conditions: Homo sapiens, read-out: % Viability Remaining (8 hr), mean
Protocol: as §1

H128 SCLC cells = experiment: as above; type: cell-based; conditions: Homo sapiens, read-out: % Viability Remaining (8 hr), mean
Protocol: as §1

Su-DHL-8 DLBCL cells = experiment: as above; type: cell-based; conditions: Homo sapiens, read-out: % Viability Remaining (8 hr), mean
Protocol: as §1

Su-DHL-4 DLBCL cells = experiment: as above; type: cell-based; conditions: Homo sapiens, read-out: % Viability Remaining (8 hr), mean
Protocol: as §1

[1] = tested on: TOLEDO human Diffuse Large B-Cell Lymphoma (DLBCL) xenograft; experiment: Toledo human DLBCL xenograft model; conditions: dinaciclib 40 mg/kg ip q4d, ABT-199 100 mg/kg po qd, alone or combined
Protocol: Eight week old female SCID beige mice (Fox Chase SCID® Beige) with body weights ranging from 18.0 to 22 grams were used for this study. Toledo tumor cells were grown to mid-log phase in RPMI-1640 medium containing 10% fetal bovine serum, 100 units/mL penicillin G, 100 μg/mL streptomycin sulfate, and 10 mM sodium pyruvate. The cells were cultured in tissue culture flasks in a humidified incubator at 37° C., in an atmosphere of 5% CO2 and 95% air. Mice were implanted subcutaneously in the right flank with 5×10e^6 tumor cells in 50% matrigel in a total volume of 0.1 ml. Twenty-eight days after inoculation, mice were randomized into groups when tumors reached an average tumor volume of ˜160 mm^3.
Dinaciclib, formulated in 20% hydroxypropyl beta-cyclodextrin (HPBCD), was dosed at 40 mg/kg intraperitoneal (ip) every four days (q4d). […] Both test agents were administered at 10 ml/kg.
Tumor volume (TV) was measured twice a week using calipers. Tumor volume was calculated by the elliptical formula: Tumor Volume=width2×length/2. Body weight was measured at least twice weekly. […] Statistical Analysis of Tumor Growth Inhibition (TGI) was analyzed by one-way ANOVA followed by Tukey's multiple comparison test.

[2] = tested on: SUDHL4 human Diffuse Large B-Cell Lymphoma (DLBCL) xenograft; type: in vivo; conditions: dinaciclib 40 mg/kg ip q4d, ABT-199 100 mg/kg po qd, dosing for eleven days, combination measured on day 18
Protocol: (§2) The cells were cultured in tissue culture flasks in a humidified incubator at 37° C., in an atmosphere of 5% CO2 and 95% air.
(§3) Body weight was measured at least twice weekly.

[3] = tested on: NCI-H82 human Small Cell Lung Cancer (SCLC) xenograft; experiment: NCI-H82 human Small Cell Lung Cancer xenograft model; type: in vivo, mouse; conditions: dinaciclib 40 mg/kg ip q4d, ABT-199 100 mg/kg po qd
Protocol: as §2, §3

Compound | viability at 0.1 µM (H82 SCLC cells; H82 SCLC, dinaciclib 0.1 uM, 8 hr) [%] | viability at 0.1 µM (H146 SCLC cells; NCI-H146, H146 SCLC, dinaciclib 0.1 uM, 8 hr) [%] | viability at 0.1 µM (H128 SCLC cells; NCI-H128, H128 SCLC, dinaciclib 0.1 uM, 8 hr) [%] | viability at 0.1 µM (Su-DHL-8 DLBCL cells; Su-DHL-8 DLBCL, dinaciclib 0.1 uM, 8 hr) [%] | viability at 0.1 µM (Su-DHL-4 DLBCL cells; Su-DHL-4 DLBCL, dinaciclib 0.1 uM, 8 hr) [%] | Anti-tumor effect (tumor volume) [1] | Anti-tumor effect (tumor volume) [2] | Effect on tumor growth (single agents) [3] | viability at 1 µM (H82 SCLC cells; 8 h) [%] | viability at 1 µM (H146 SCLC cells; NCI-H146, 8 h) [%] | viability at 1 µM (H128 SCLC cells; NCI-H128, 8 h) [%] | viability at 1 µM (Su-DHL-8 DLBCL cells; SU-DHL-8, 8 h) [%] | viability at 1 µM (Su-DHL-4 DLBCL cells; SU-DHL-4, 8 h) [%]
CCc1cnn2c(NCc3ccc[n+]([O-])c3)cc(N3CCCC[C@H]3CCO)nc12 [dinaciclib, (S)-(−)-2-(1-{3-ethyl-7-[(1-oxy-pyridin-3-ylmethyl)amino]pyrazolo[1,5-a]pyrimidin-5-yl}piperidin-2-yl)ethanol] | 64.7 | 118 | 114 | 126 | 53.5 |  |  |  |  |  |  |  | 
CC1(C)CCC(CN2CCN(c3ccc(C(=O)NS(=O)(=O)c4ccc(NCC5CCOCC5)c([N+](=O)[O-])c4)c(Oc4cnc5[nH]ccc5c4)c3)CC2)=C(c2ccc(Cl)cc2)C1 [ABT-199, 4-(4-{[2-(4-chlorophenyl)-4,4-dimethylcyclohex-1-en-1-yl]methyl}piperazin-1-yl)-N-({3-nitro-4-[(tetrahydro-2H-pyran-4-ylmethyl)amino]phenyl}sulfonyl)-2-(1H-pyrrolo[2,3-b]pyridin-5-yloxy)benzamide] |  |  |  |  |  | provided anti-tumor effects | single agent activity | no effect on tumor growth | 111 | 92.6 | 95.4 | 99.4 | 85.4
